In patent US20210317401A1, “USE OF CYSTEINE OR SALT THEREOF FOR CRYOPROTECTING LACTIC ACID BACTERIA” (CJ CHEILJEDANG CORPORATION, priority 2018, published 2021):

Experiments:
[1] = system: Lactobacillus plantarum CJLP133; test: High-concentration culturing of lactic acid bacteria, O.D. value; format: cell-based; details: 0.1% in MRS liquid medium; from O.D. results
Protocol: (§1) A Lactobacillus plantarum CJLP133 strain was cultured at 37° C. for 11 hours in an MRS liquid medium (Difco, USA) containing 0.1% of cysteine monohydrochloride.
(§2) A Lactobacillus plantarum CJLP133 strain was cultured at 37° C. for 11 hours in an MRS liquid medium (Difco, USA) not containing 0.1% of cysteine monohydrochloride.
The evaluation of the lactic acid bacteria culturing was measured by diluting a lactic acid bacteria culture solution 20 times at 600 nm using a spectrophotometer (NanoPhotometer, IMPLEN) according to the method for measuring an optical density (O.D.) value of Korean Food Additives Codex.

[2] = system: Lactobacillus plantarum CJLP133; test: High-concentration culturing of lactic acid bacteria, number of live bacteria; format: cell-based; details: 0.1% in MRS liquid medium; from live bacteria counts
Protocol: as §1, §2
A lactic acid bacteria culture solution was diluted with sterilized physiological water and smeared so that 30 to 300 colonies were formed in an MRS agar plate medium, and then cultured at 37° C. for 24 hours. The number of colonies observed after the culturing was counted and calculated as the number of live bacteria per mL.

SMILES: Cl.N[C@@H](CS)C(=O)O [cysteine monohydrochloride]
- ability to accelerate the growth of lactic acid bacteria (in words) [1]: excellent
- ability to accelerate the growth of lactic acid bacteria (in words) [2]: excellent
